# Laboratory results reported in ChEMBL document CHEMBL6153157, “Novel 3-Aminothieno[2,3-b]pyridine-2-carboxamides with Activity against Mycobacterium tuberculosis” (ACS Med Chem Lett, 2025).
# Assays:
# [1] = test system: Mycobacterium tuberculosis; assay: Antibacterial activity against Mycobacterium tuberculosis LepB-UE strain under expressing signal peptidase LepB assessed growth inhibition incubated for 5 days by fluorescence spectrophotometric assay; type: functional; conditions: 120 h, time 5 day
# [2] = Cytotoxicity against human HepG2 cells assessed as cell growth inhibition incubated for 3 days by CellTiter-Glo reagent-based luminescence assay; type: toxicity
# [3] = test system: Mycobacterium tuberculosis; assay: Antibacterial activity against wild type Mycobacterium tuberculosis H37Rv-LP DREAM8 strain expressing codon-optimized DsRed assessed growth inhibition incubated for 5 days by fluorescence spectrophotometric assay; type: functional; conditions: H37Rv-LP DREAM8, 120 h, time 5 day
# [4] = Selectivity index, ratio of IC50 for cytotoxicity against human HepG2 cells to IC90 for antibacterial activity against wild type Mycobacterium tuberculosis H37Rv-LP DREAM8 strain expressing codon-optimized DsRed; type: toxicity, cell-based
SMILES,IC90 [1] [µM],IC50 at 3 days [2] [µM],IC90 [3] [µM],selectivity ratio [4]
COc1ccc(-c2cc(C(F)(F)F)c3c(N)c(C(=O)NC(C)c4ccccc4)sc3n2)cn1 (stereo not given),0.41,19,1.2,–
COc1ccc(-c2cc(C(F)(F)F)c3c(N)c(C(=O)N4CC5(CCOC5)C4)sc3n2)cc1,–,33,> 50,< 1
COc1ccc(-c2cc(C(F)(F)F)c3c(N)c(C(=O)N4CC(C)OC(C)C4)sc3n2)cc1 (stereo not given),–,44,> 50,< 1
COc1ccc(-c2cc(C(F)(F)F)c3c(N)c(C(=O)N4CCCC4(C)C)sc3n2)cc1,–,78,> 100,< 1
COc1ccc(-c2cc(C(F)(F)F)c3c(N)c(C(=O)NCC45CC6CC(CC(C6)C4)C5)sc3n2)cc1,–,> 100,1.4,< 71
COc1ccc(-c2cc(C(F)(F)F)c3c(N)c(C(=O)N4CC(F)(F)C4)sc3n2)cc1,–,> 50,> 50,< 1
COc1ccc(-c2cc(C(F)(F)F)c3c(N)c(C(=O)Nc4cc(C)cc(C)c4)sc3n2)cc1,–,47,> 100,< 1
COc1ccc(-c2cc(C(F)(F)F)c3c(N)c(C(=O)NC(C)c4ccccc4)sc3n2)cc1 (stereo not given),–,52,0.63,83
COc1ccc(-c2cc(C(F)(F)F)c3c(N)c(C(=O)NC45CC6CC(CC(C6)C4)C5)sc3n2)cc1,–,> 100,1.1,< 91
COc1ccc(-c2cc(C(F)(F)F)c3c(N)c(C(=O)NCc4cccc(C)c4C)sc3n2)cc1,–,50,1.3,38
COc1ccc(-c2cc(C(F)(F)F)c3c(N)c(C(=O)NCc4ccccc4)sc3n2)cc1,–,88,> 100,< 1
COc1ccc(-c2cc(C(F)(F)F)c3c(N)c(C(=O)N4CC(OC)C4)sc3n2)cc1,–,50,> 100,< 1
COc1ccc(-c2cc(C(F)(F)F)c3c(N)c(C(=O)NC(C)C4CCCCC4)sc3n2)cc1 (stereo not given),–,> 100,1.1,> 91
COc1ccc(-c2cc(C(F)(F)F)c3c(N)c(C(=O)N4C5CCCC4COC5)sc3n2)cc1,–,42,> 100,< 1
COc1ccc(-c2cc(C(F)(F)F)c3c(N)c(C(=O)Nc4cc(C)ccc4C)sc3n2)cc1,–,23,> 100,< 1
COc1ccc(-c2cc(C(F)(F)F)c3c(N)c(C(=O)NC45CC(C4)C5)sc3n2)cc1,–,36,> 50,< 1
CCC(NC(=O)c1sc2nc(-c3ccc(OC)cc3)cc(C(F)(F)F)c2c1N)c1ccccc1 (stereo not given),–,> 100,0.74,> 135
COc1ccc(-c2cc(C(F)(F)F)c3c(N)c(C(=O)Nc4ccc(C)c(C)c4)sc3n2)cc1,–,79,> 100,< 1
COc1ccc(-c2cc(C(F)(F)F)c3c(N)c(C(=O)N4CCC4)sc3n2)cc1,–,62,> 100,< 1
COc1ccc(-c2cc(C(F)(F)F)c3c(N)c(C(=O)NCCc4ccccc4)sc3n2)cc1,–,23,> 100,< 1
